From patent publication EP0262209B1, “SYNERGISTIC PLANT GROWTH REGULATOR COMPOSITIONS” (RHONE POULENC NEDERLAND B.V., priority 1986, dated 1987)

Experiments:
[1] = test system: snapbean plants; assay: Abscission of snapbean plant leaves with ethylene gas exposure (Example XVII, Table N); format: in vivo, Phaseolus vulgaris var. Cranberry
[2] = test system: snapbean plants; assay: Defoliation of snapbean plants, foliar spray (Example VI, Table C); format: in vivo, Phaseolus vulgaris var. Cranberry; details: Phaseolus vulgaris, foliar spray, 96 hours after treatment, read-out: Percent Defoliation; for pest or weed control at 280.212 g/ha: Rate 0.25 Pounds per Acre; for pest or weed control at 560.425 g/ha: Rate 0.50 Pounds per Acre
Experimental: (§1) Solutions of the test compounds and compositions identified in Table C below were prepared by dissolving the compounds in acetone/water (50:50 volume/volume) containing 0.1 percent volume/volume of Triton X-100 surfactant commercially available from Rhom and Haas Company, Philadelphia, Pennsylvania. As detailed below, these solutions of the test compounds and compositions were applied to snapbean plants at a concentration of 0.25 pounds of each active ingredient per acre (0.28 kg/ha) or 0.50 pounds of each active ingredient per acre (0.56 kg/ha). The compositions were applied to the snapbean plants as a mixture. Ethephon is commercially available from Union Carbide Agricultural Products Company, Inc., Research Triangle Park, North Carolina.
(§2) Into 13.5 centimeter diameter plastic pots containing a potting soil mix, i.e., one-third sandy loam soil, one-third peat moss and one-third perlite by volume, were sown three snapbean seeds (Phaseolus vulgaris var. Cranberry). Five to seven days after planting, the plants were thinned to one plant per pot. Ten to fourteen days after planting at the time of full expansion of the primary leaves, each concentration of the test compounds and compositions identified in […] (each pot sprayed with a volume equivalent to 180 gallons per acre) - i.e. 1683 l/ha was applied to three snapbean plants as a foliar spray by use of an aspirated spray apparatus set at 10 psig air pressure (517 mmHg). As a control, a water-acetone solution containing no test compound or composition was also sprayed on three snapbean plants. When dry, all or the plants were placed in a greenhouse at a temperature of 80°F ± 5°F (27°C ± 3°C) and humidity of 50 percent ± 5 percent. At 96 hours after treatment, percent defoliation of the snapbean plants was determined by visual observation. The values obtained For the control and each test compound and composition were averaged to obtain the results in Table C.

[3] = test system: cotton plants; assay: Defoliation and boll opening of cotton under field conditions (Example IX, Table F); format: in vivo; set-up: key to Percent Boil Opening: *: Percent boll opening essentially the same as the control as determined by visual observation; details: Rate 2.0 Pounds per Acre; for Percent Boil Opening: 14 days after treatment, result given by footnote symbol, control 41; for Percent Defoliation: field conditions, four days after treatment
Experimental: (§3) Solutions of the test compounds and compositions identified in Table F were prepared by dissolving the compounds in acetone/water (50:50 volume/volume) containing 0.1 percent volume/volume of Surfel® spray adjuvant commercially available from Union Carbide Corporation, Danbury, Connecticut. As detailed below, these solutions of test compounds and compositions were applied to cotton plants at a concentration of 0.5 pounds of each active ingredient per acre (0,6 kg/ha) or 2.0 pounds of active ingredient per acre (2,2 kg/ha). The compositions were applied to cotton as mixtures.
(§4) The above solutions were applied to cotton plants growing under field conditions at a spray volume equivalent to 100 gallons per acre 935 l/ha) by use of a carbon dioxide backpack sprayer set at about 30 psig air pressure (2 bar). The application timing coincided with a cotton maturity phase equivalent to about 40 percent open bolls. As a control, a water-acetone solution containing no test compound or composition was also sprayed on the cotton plants. At four days after treatment, percent defoliation of the cotton plants was determined by visual observation. At 14 days after treatment, percent boll opening was determined by visual observation of the number of open bolls/total number of bolls. The percent defoliation and percent boll opening values obtained for the control and each of the test compounds and compositions are reported in Table F as the average of three replications. TABLE F

[4] = test system: cotton; assay: Sequential applications, defoliation of cotton (Example XI, Table H); format: in vivo; details: alone
Experimental: In a manner similar to the procedure described in Example VI , the defoliation effect on snapbean plants was determined for representative synergistic compositions using both combination (tank mix) and sequential application methods. In the sequential application method, the second compound was applied 78 hours after the first compound. TABLE E
In a manner similar to the procedure described in Example VIII , the defoliation effect on cotton was determined for representative synergistic compositions using sequential application. Ethephon applications were made 7 days after application of the particular malonic acid derivative compound. TABLE H

[5] = test system: rank growth cotton; assay: Defoliation of cotton (rank growth) (Example X, Table G); format: in vivo; details: Rate 2.0 Pounds per Acre
Experimental: as §3, §4
In a manner similar to the procedure described in Example IX , the defoliation effect on rank growth cotton was determined for representative synergistic compositions at various rates of application. […] TABLE G

[6] = test system: cotton plant; assay: Regrowth of cotton following defoliation, DEF treated plant as standard (Example XIV, Table K); format: in vivo; details: regrowth relative to DEF standard (43 percent), Rate 0.5 Pounds per Acre, 30 days after treatment; for inhibition at 560.425 g/ha: Gossypium hirsutum, 720 h, read-out: Percent Inhibition
Experimental: as §3, §4
In a manner similar to the procedure described in Example IX , the effect of cotton regrowth after defoliation was determined for representative synergistic compositions at various rates of application. The percent regrowth inhibition and stimulation in Table R below were determined by visual observation based on the percent of a cotton plant having regrowth using a DEF treated cotton plant as the standard. DEF is commercially available from Mobay Chemical Corporation, Kansas City, Missouri. The average regrowth of a cotton plant treated with DEF was 43 percent. As used in Table R, percent regrowth inhibition resulted from a cotton plant having a regrowth percentage less than 43 percent (DEF standard), and percent regrowth stimulation resulted from a cotton plant having a regrowth percentage greater than 43 percent. The percent regrowth inhibition and stimulation were determined 30 days after treatment.

[7] = test system: cotton; assay: Defoliation of cotton at various rates (Example XIII, Table J); format: in vivo; details: alone
Experimental: as §3, §4
In a manner similar to the procedure described in Example IX , the defoliation effect on cotton was determined for representative synergistic compositions at various rates of application. TABLE J

[8] = test system: snapbean plants; assay: Defoliation of snapbean plants with various ethylene releasing agents (Example XVI, Table M); format: in vivo, Phaseolus vulgaris var. Cranberry
Experimental: as §1, §2
In a manner similar to the procedure described in Example VI , the defoliation effect on snapbean plants was determined for representative synergistic compositions at various rates of application using various ethylene releasing agents identified in Table M below. The ethylene releasing agents used in […] are known materials which can be prepared by conventional methods.

[9] = test system: snapbean plants; assay: Defoliation of snapbean plants at various rates, 72 hours (Example VII, Table D); format: in vivo, Phaseolus vulgaris var. Cranberry; details: 72 hours after treatment
Experimental: as §1, §2
In a manner similar to the procedure described in Example VI, the defoliation effect on snapbean plants was determined for representative synergistic compositions at various rates of application except that percent defoliation of the snapbean plants was determined at 72 hours after treatment. TABLE D

[10] = test system: snapbean plants; assay: Combination/sequential applications, defoliation of snapbean plants (Example VIII, Table E); format: in vivo, Phaseolus vulgaris var. Cranberry; details: Rate 0.5 Pounds per Acre, applied alone
Experimental: as §1
(§5) Into 13.5 centimeter diameter plastic pots containing a potting soil mix, i.e., one-third sandy loam soil, one-third peat moss and one-third perlite by volume, were sown three snapbean seeds (Phaseolus vulgaris var. Cranberry). Five to seven days after planting, the plants were thinned to one plant per pot. […] At 96 hours after treatment, percent defoliation of the snapbean plants was determined by visual observation. […]
In a manner similar to the procedure described in Example VI , the defoliation effect on snapbean plants was determined for representative synergistic compositions using both combination (tank mix) and sequential application methods. […]

[11] = test system: cotton; assay: Defoliation of cotton at various rates (Example XII, Table I); format: in vivo; details: Rate 0.5 Pounds per Acre, alone
Experimental: as §3, §4
In a manner similar to the procedure described in Example IX , the defoliation effect on cotton was determined for representative synergistic compositions at various rates of application.

[12] = test system: mature tobacco plants; assay: Leaf ripening (chlorosis) of tobacco (Example XV, Table L); format: in vivo; details: Rate 1.0 Pounds per Acre, alone; upper three leaves; 7 days after treatment; control 10
Experimental: as §1, with “Ethephon is commercially available from Union Carbide Agricultural Products Company, Inc., Research Triangle Park, North Carolina.” left out
as §5, with “Cranberry).” for “Cranberry). Five to seven days after planting, the plants were thinned to one plant per pot.”
In a manner similar to the procedure described in Example VI except that mature tobacco plants were used in place of snapbean plants, the leaf ripening effect of tobacco was determined for representative synergistic compositions at various rates of application. […] Percent tobacco leaf ripening (chlorosis) was determined by visual observation of the upper three leaves of the tobacco plant at 7 days after treatment. […]

[13] = Concentration 125 ppm foliar spray
[14] = Concentration 250 ppm foliar spray

Cc1cc(Br)ccc1NC(=O)C1(C(=O)O)CC1 [Compound 111]
Percent Abscission 48 Hours [1, 13]: 0%
Percent Abscission 96 Hours [1, 13]: 17%
Percent Abscission 48 Hours [1, 14]: 33%
Percent Abscission 96 Hours [1, 14]: 50%
pest or weed control at 280.212 g/ha [2]: 0%
pest or weed control at 560.425 g/ha [2]: 0%
Percent Boil Opening [3]: *
Percent Defoliation [3]: 0%
Percent Defoliation ([4]; Rate 0.5 Pounds per Acre): 0%
Percent Defoliation ([4]; Rate 1.0 Pounds per Acre): 0%
Percent Defoliation [5]: 0%
inhibition at 560.425 g/ha [6]: 0%
Percent Stimulation [6]: 0%
Percent Defoliation ([7]; Rate 0.25 Pounds per Acre): 0%
Percent Defoliation ([7]; Rate 0.5 Pounds per Acre): 0%
Percent Defoliation ([8]; Rate 0.125 Pounds per Acre): 0%
Percent Defoliation ([8]; Rate 0.25 Pounds per Acre): 0%
Percent Defoliation ([8]; Rate 0.50 Pounds per Acre): 0%

O=C(O)C1(C(=O)Nc2cc(Cl)c(Cl)cc2Cl)CC1 [Compound 112]
pest or weed control at 280.212 g/ha [2]: 0%
pest or weed control at 560.425 g/ha [2]: 0%

CCOC(=O)C1(C(=O)Nc2ccc(Cl)cc2Cl)CC1 [Compound 80]
pest or weed control at 280.212 g/ha [2]: 0%
pest or weed control at 560.425 g/ha [2]: 0%

CCOC(=O)C1(C(=O)Nc2ccc(Br)cc2Cl)CC1 [Compound 88]
pest or weed control at 280.212 g/ha [2]: 0%
pest or weed control at 560.425 g/ha [2]: 0%

NP(N)(=O)CCCl [2-Chloroethylphosphonic diamide]
Percent Defoliation ([8]; Rate 0.125 Pounds per Acre): 0%
Percent Defoliation ([8]; Rate 0.25 Pounds per Acre): 0%
Percent Defoliation ([8]; Rate 0.50 Pounds per Acre): 0%

CCOC(=O)C1(C(=O)Nc2ccc(Br)cc2C)CC1 [Compound 96]
Percent Defoliation ([9]; Rate 0.25 Pounds per Acre): 0%
Percent Defoliation ([9]; Rate 0.50 Pounds per Acre): 0%
pest or weed control at 280.212 g/ha [2]: 0%
pest or weed control at 560.425 g/ha [2]: 0%
Percent Defoliation [10]: 0%
Percent Defoliation [11]: 0%
Percent Boil Opening [3]: *
Percent Defoliation [3]: 0%
Percent Defoliation ([4]; Rate 0.5 Pounds per Acre): 0%
Percent Defoliation ([4]; Rate 1.0 Pounds per Acre): 0%
Percent Ripening (Chlorosis) [12]: 10%
Percent Defoliation [5]: 0%
inhibition at 560.425 g/ha [6]: 0%
Percent Stimulation [6]: 0%

O=C(O)C1(C(=O)Nc2ccc(Cl)cc2)CC1 [Compound 116]
pest or weed control at 280.212 g/ha [2]: 0%
pest or weed control at 560.425 g/ha [2]: 0%

O=C(O)C1(C(=O)Nc2ccc(Cl)cc2F)CC1 [Compound 115]
pest or weed control at 280.212 g/ha [2]: 0%
pest or weed control at 560.425 g/ha [2]: 0%

CCOC(=O)C1(C(=O)Nc2ccc(Br)c(Cl)c2)CC1 [Compound 90]
pest or weed control at 280.212 g/ha [2]: 0%
pest or weed control at 560.425 g/ha [2]: 0%

O=C(O)C1(C(=O)Nc2ccc(Cl)cc2Br)CC1 [Compound 122]
pest or weed control at 280.212 g/ha [2]: 0%
pest or weed control at 560.425 g/ha [2]: 0%

O=C(O)C1(C(=O)Nc2cc(Cl)ccc2Cl)CC1 [Compound 113]
pest or weed control at 280.212 g/ha [2]: 0%
pest or weed control at 560.425 g/ha [2]: 0%
